Measurements as given in ChEMBL document CHEMBL1201862, “PubChem BioAssay data set” (2004).
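Results reflect a 48-hour exposure of cells in 96-well plates to compound at five concentrations. GI50 is the concentration that inhibits growth by half.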 Activity calls are given as the source filed them. Cut-off read from the data, not from the text of the source: active = GI50 up to about 1.1 µM and inactive = higher.

Assays:
Assay in all cases: DTP human tumour cell line panel, 48 h
NCI-H226 = tested on: NCI-H226
NCI/ADR-RES = tested on: NCI/ADR-RES
SW-620 = tested on: SW-620
A498 = tested on: A498
NCI-H522 = tested on: NCI-H522
KM12 = tested on: KM12
PC-3 = tested on: PC-3
CAKI-1 = tested on: CAKI-1
SNB-19 = tested on: SNB-19
T47D = tested on: T47D
COLO 205 = tested on: COLO 205
UACC-62 = tested on: UACC-62
SF-295 = tested on: SF-295
OVCAR-5 = tested on: OVCAR-5
SN12C = tested on: SN12C
Malme-3M = tested on: Malme-3M
786-0 = tested on: 786-0
Hs-578T = tested on: Hs-578T
SF-268 = tested on: SF-268
SNB-75 = tested on: SNB-75
HCT-116 = tested on: HCT-116
BT-549 = tested on: BT-549
MCF7 = tested on: MCF7
SK-MEL-2 = tested on: SK-MEL-2
HOP-92 = tested on: HOP-92
SK-MEL-5 = tested on: SK-MEL-5
TK-10 = tested on: TK-10
OVCAR-3 = tested on: OVCAR-3
A549 = tested on: A549
U-251 = tested on: U-251
SK-MEL-28 = tested on: SK-MEL-28
RXF 393 = tested on: RXF 393
IGROV-1 = tested on: IGROV-1
K562 = tested on: K562
UACC-257 = tested on: UACC-257
SR = tested on: SR
UO-31 = tested on: UO-31
CCRF-CEM = tested on: CCRF-CEM
MOLT-4 = tested on: MOLT-4
HCT-15 = tested on: HCT-15
LOX IMVI = tested on: LOX IMVI
MDA-MB-435 = tested on: MDA-MB-435
DU-145 = tested on: DU-145
EKVX = tested on: EKVX
M14 = tested on: M14
HL-60 = tested on: HL-60
MDA-N = tested on: MDA-N
SF-539 = tested on: SF-539
OVCAR-8 = tested on: OVCAR-8
HCC 2998 = tested on: HCC 2998
ACHN = tested on: ACHN
RPMI-8226 = tested on: RPMI-8226
NCI-H460 = tested on: NCI-H460
MDA-MB-231 = tested on: MDA-MB-231
OVCAR-4 = tested on: OVCAR-4

**Q.** Which results are given for `Cc1c(C)c2c(c(N)c1C#N)C(=O)N(CCc1ccccc1)C2=O`?
**A.** GI50 (NCI-H226): > 100 µM (inactive); GI50 (NCI/ADR-RES): > 100 µM (inactive); GI50 (SW-620): > 100 µM (inactive); GI50 (A498): > 100 µM (inactive); GI50 (NCI-H522): > 100 µM (inactive); GI50 (KM12): > 100 µM (inactive); GI50 (PC-3): > 100 µM (inactive); GI50 (CAKI-1): > 100 µM (inactive); GI50 (SNB-19): > 100 µM (inactive); GI50 (T47D): > 100 µM (inactive); GI50 (COLO 205): > 100 µM (inactive); GI50 (UACC-62): > 100 µM (inactive); GI50 (SF-295): > 100 µM (inactive); GI50 (OVCAR-5): > 100 µM (inactive); GI50 (SN12C): > 100 µM (inactive); GI50 (Malme-3M): > 100 µM (inactive); GI50 (786-0): > 100 µM (inactive); GI50 (Hs-578T): > 100 µM (inactive); GI50 (SF-268): > 100 µM (inactive); GI50 (SNB-75): > 100 µM (inactive); GI50 (HCT-116): > 100 µM (inactive); GI50 (BT-549): > 100 µM (inactive); GI50 (MCF7): > 100 µM (inactive); GI50 (SK-MEL-2): > 100 µM (inactive); GI50 (HOP-92): > 100 µM (inactive); GI50 (SK-MEL-5): > 100 µM (inactive); GI50 (TK-10): > 100 µM (inactive); GI50 (OVCAR-3): > 100 µM (inactive); GI50 (A549): 94.8 µM (inactive); GI50 (U-251): > 100 µM (inactive); GI50 (SK-MEL-28): > 100 µM (inactive); GI50 (RXF 393): > 100 µM (inactive); GI50 (IGROV-1): > 100 µM (inactive); GI50 (K562): > 100 µM (inactive); GI50 (UACC-257): > 100 µM (inactive); GI50 (SR): 38.5 µM (inactive); GI50 (UO-31): > 100 µM (inactive); GI50 (CCRF-CEM): > 100 µM (inactive); GI50 (MOLT-4): 72.6 µM (inactive); GI50 (HCT-15): > 100 µM; GI50 (LOX IMVI): > 100 µM (inactive); GI50 (MDA-MB-435): > 100 µM (inactive); GI50 (DU-145): > 100 µM (inactive); GI50 (EKVX): > 100 µM (inactive); GI50 (M14): > 100 µM (inactive); GI50 (HL-60): 29.2 µM (inactive); GI50 (MDA-N): > 100 µM (inactive); GI50 (SF-539): > 100 µM (inactive); GI50 (OVCAR-8): > 100 µM (inactive); GI50 (HCC 2998): > 100 µM (inactive); GI50 (ACHN): > 100 µM (inactive); GI50 (RPMI-8226): > 100 µM (inactive); GI50 (NCI-H460): > 100 µM (inactive); GI50 (MDA-MB-231): > 100 µM (inactive); GI50 (OVCAR-4): > 100 µM (inactive)
